Measured values from ChEMBL document CHEMBL4811277, “Glycyrrhetinic acid derivatives as Zika virus inhibitors: Synthesis and antiviral activity in vitro” (Bioorg Med Chem, 2021).
Active and inactive are the calls of the source. The rule behind the calls is not given here.

What was measured:
Zika virus [1] = experiment: Antiviral activity against Zika virus infected in human SF-268 cells assessed as inhibition of virus-induced cytopathic effect at 10 uM measured at 96 hrs MTT assay; type: functional
Zika virus [2] = experiment: Antiviral activity against Zika virus infected in human SF-268 cells assessed as reduction in viral NS1 protein synthesis at 10 uM measured at 96 hrs by immunofluorescence assay relative to control; type: functional
[3] = Cytotoxicity against human SF-268 cells assessed as inhibition of cell viability measured after 96 hrs by MTT assay; type: cell-based
Zika virus [4] = experiment: Antiviral activity against Zika virus infected in human SF-268 cells assessed as reduction in viral infection by DAPI staining based immunofluorescence assay; type: functional, organism-based
[5] = Therapeutic index, ratio of CC50 for cytotoxicity against human SF-268 cells to IC50 for antiviral activity against Zika virus infected in human SF-268 cells; type: toxicity, cell-based; conditions: read-out: TI
Zika virus [6] = experiment: Antiviral activity against Zika virus infected in SF-268 cells assessed as inhibition of viral infection at entry stage measured after 96 hrs by DAPI staining based fluorescence microscopic analysis; type: functional, organism-based; conditions: SF-268, 96 h
Zika virus [7] = experiment: Antiviral activity against Zika virus infected in SF-268 cells assessed as inhibition of viral infection at post entry stage after 96 hrs measured after 1 hr post infection by DAPI staining based fluorescence microscopic analysis; type: functional, organism-based

Q: For `COC(=O)[C@@]1(C)CC[C@]2(C)CC[C@]3(C)C(=CC(=O)C4[C@@]5(C)Cc6snnc6C(C)(C)C5CC[C@]43C)[C@@H]2C1` (some centres not stated), which inhibition at 10 µM (Zika virus [1]) is on record?
A: > 70%

Q: And the INH (Zika virus [2])?
A: 74.9%

Q: What about the CC50 at 96 h [3] of the same compound?
A: > 50 µM

Q: What about the IC50 (Zika virus [4]) of the same compound?
A: 290 nM

Q: What about the selectivity ratio [5] of the same compound?
A: > 172

Q: What about the IC50 (Zika virus [6]) of the same compound?
A: 620 nM

Q: And the IC50 (Zika virus [7])?
A: 1940 nM

Q: What does the source list for `CC(=O)O[C@H]1CC[C@@]2(C)C(CC[C@]3(C)C2C(=O)C=C2C4C[C@@](C)(C(=O)Nc5nc(-c6ccccc6)cs5)CC[C@]4(C)CC[C@]23C)C1(C)C` (some centres not stated)?
A: inhibition (Zika virus [1]): Active; INH (Zika virus [2]): 52.3%

Q: With `COC(=O)[C@@]1(C)CC[C@]2(C)CC[C@]3(C)C(=CC(=O)C4[C@@]5(C)CC/C(=N\NC(N)=O)C(C)(C)C5CC[C@]43C)[C@@H]2C1` (some centres not stated) as the compound, how does the inhibition at 10 µM (Zika virus [1]) read?
A: 63%

Q: What about the INH (Zika virus [2]) of the same compound?
A: 66.6%

Q: Which inhibition (Zika virus [1]) does the source give for `COC(=O)[C@@]1(C)CC[C@]2(C)CC[C@]3(C)C(=CCC4[C@@]5(C)CC/C(=N\NC(N)=S)C(C)(C)C5CC[C@]43C)C2C1` (some centres not stated) here?
A: Active

Q: And the INH (Zika virus [2])?
A: 49.5%

Q: For `COC(=O)[C@@]1(C)CC[C@]2(C)CC[C@]3(C)C(=CCC4[C@@]5(C)CC/C(=N\NC(N)=O)C(C)(C)C5CC[C@]43C)C2C1` (some centres not stated), which inhibition (Zika virus [1]) is on record?
A: Active

Q: And the INH (Zika virus [2])?
A: 49.9%

Q: Which results are given for `CC(=O)O[C@H]1CC[C@@]2(C)C(CC[C@]3(C)C2C(=O)C=C2C4C[C@@](C)(C(=O)Nc5cnc6ccccc6c5)CC[C@]4(C)CC[C@]23C)C1(C)C` (some centres not stated)?
A: inhibition (Zika virus [1]): Active; INH (Zika virus [2]): 26.5%

Q: With `CCCCOC(=O)[C@@]1(C)CC[C@]2(C)CC[C@]3(C)C(=CC(=O)C4[C@@]5(C)CC/C(=N\NC(N)=O)C(C)(C)C5CC[C@]43C)[C@@H]2C1` (some centres not stated) as the compound, how does the inhibition at 10 µM (Zika virus [1]) read?
A: > 70%

Q: What about the INH (Zika virus [2]) of the same compound?
A: 82.8%

Q: And the CC50 at 96 h [3]?
A: > 50 µM

Q: What about the IC50 (Zika virus [4]) of the same compound?
A: 550 nM

Q: And the selectivity ratio [5]?
A: > 90.9

Q: And the IC50 (Zika virus [6])?
A: 1090 nM

Q: And the IC50 (Zika virus [7])?
A: 450 nM

Q: Which inhibition at 10 µM (Zika virus [1]) does the source give for `CC(=O)O[C@H]1CC[C@@]2(C)C(CC[C@]3(C)C2C(=O)C=C2C4C[C@@](C)(C(=O)Nc5cccnc5)CC[C@]4(C)CC[C@]23C)C1(C)C` (some centres not stated) here?
A: > 70%

Q: What about the INH (Zika virus [2]) of the same compound?
A: 76.3%

Q: And the CC50 at 96 h [3]?
A: > 50 µM

Q: And the IC50 (Zika virus [4])?
A: 130 nM

Q: What about the selectivity ratio [5] of the same compound?
A: > 384

Q: And the IC50 (Zika virus [6])?
A: 680 nM

Q: And the IC50 (Zika virus [7])?
A: 1000 nM

Q: For `CCCCOC(=O)[C@@]1(C)CC[C@]2(C)CC[C@]3(C)C(=CC(=O)C4[C@@]5(C)Cc6snnc6C(C)(C)C5CC[C@]43C)[C@@H]2C1` (some centres not stated), which inhibition at 10 µM (Zika virus [1]) is on record?
A: > 70%

Q: And the INH (Zika virus [2])?
A: 82.1%

Q: What about the CC50 at 96 h [3] of the same compound?
A: > 50 µM

Q: And the IC50 (Zika virus [4])?
A: 560 nM

Q: And the selectivity ratio [5]?
A: > 89.3

Q: And the IC50 (Zika virus [6])?
A: 500 nM

Q: What about the IC50 (Zika virus [7]) of the same compound?
A: 430 nM

Q: With `COC(=O)[C@@]1(C)CC[C@]2(C)CC[C@]3(C)C(=CCC4[C@@]5(C)Cc6snnc6C(C)(C)C5CC[C@]43C)C2C1` (some centres not stated) as the compound, how does the inhibition (Zika virus [1]) read?
A: Active

Q: And the INH (Zika virus [2])?
A: 55.4%

Q: Which inhibition at 10 µM (Zika virus [1]) does the source give for `COC(=O)[C@]1(C)C=C2C3=CC(=O)C4[C@@]5(C)CC/C(=N\NC(N)=O)C(C)(C)C5CC[C@@]4(C)[C@]3(C)CC[C@@]2(C)CC1` (some centres not stated) here?
A: 63%

Q: And the INH (Zika virus [2])?
A: 62.6%
